Results published in patent US20230203043A1, “NOVEL IMIDAZOPYRAZINE DERIVATIVES” (Hoffmann-La Roche Inc., priority 2020, published 2023).
Where a name gives a salt, the structure may show the parent alone.

Test system: Acinetobacter baumannii ATCC17961
Test: Antimicrobial susceptibility testing: 90% growth inhibitory concentration (IC90) determination in Iso-Sensitest broth, OD600 growth
Assay type: cell-based
Settings: Acinetobacter baumannii, ATCC17961, 16 h, read-out: A. baumannii ATCC 17961 IC90 (uM), strain ATCC 17961, OD600 growth over 16 h
Outline: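 Growth monitored at 600 nm every 20 min for 16 h at 35±2 °C, inoculum ~5×10^(5) CFU/ml in Iso-Sensitest medium. Compounds in 10-point twofold series, e.g. 50 to 0.097 μM final; 90% inhibitory concentration taken from log-phase growth.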

| SMILES | IC90 [µM] |
| --- | --- |
| C#CCn1cc(-c2cnc3c(Nc4ccc(C(=O)NCCCNCCCCNCCCN)c(CC)c4)nccn23)c(C(F)(F)F)n1 [Example 155, N-[3-[4-(3-aminopropylamino)butylamino]propyl]-2-ethyl-4-[[3-[1-prop-2-ynyl-3-(trifluoromethyl)pyrazol-4-yl]imidazo[1,2-a]pyrazin-8-yl]amino]benzamide trifluoroacetate] | 0.585 |
| COc1ccc(Cn2cc(-c3cnc4c(Nc5ccc(C(=O)N6CCNCC6)c(Cl)c5)nccn34)c(C(F)(F)F)n2)nn1 [Example 159, [2-chloro-4-[[3-[1-[(6-methoxypyridazin-3-yl)methyl]-3-(trifluoromethyl)pyrazol-4-yl]imidazo[1,2-a]pyrazin-8-yl]amino]phenyl]-piperazin-1-ylmethanone formate] | 0.408 |
| Cc1cnc(Cn2cc(-c3cnc4c(Nc5ccc(C(=O)N6CCNCC6)c(Cl)c5)nccn34)c(C(F)(F)F)n2)nc1 [Example 160, [2-chloro-4-[[3-[1-[(5-methylpyrimidin-2-yl)methyl]-3-(trifluoromethyl)pyrazol-4-yl]imidazo[1,2-a]pyrazin-8-yl]amino]phenyl]-piperazin-1-ylmethanone formate] | 0.63 |
| Cc1ccnc(Cn2cc(-c3cnc4c(Nc5ccc(C(=O)N6CCNCC6)c(Cl)c5)nccn34)c(C(F)(F)F)n2)n1 [Example 161, [2-chloro-4-[[3-[1-[(4-methylpyrimidin-2-yl)methyl]-3-(trifluoromethyl)pyrazol-4-yl]imidazo[1,2-a]pyrazin-8-yl]amino]phenyl]-piperazin-1-ylmethanone formate] | 0.764 |
| Cc1ccc(Cn2cc(-c3cnc4c(Nc5ccc(C(=O)N6CCNCC6)c(Cl)c5)nccn34)c(C(F)(F)F)n2)nn1 [Example 163, [2-chloro-4-[[3-[1-[(6-methylpyridazin-3-yl)methyl]-3-(trifluoromethyl)pyrazol-4-yl]imidazo[1,2-a]pyrazin-8-yl]amino]phenyl]-piperazin-1-ylmethanone formate] | 1.27 |
| CN(C)CCNC(=O)CNC(=O)c1ccc(Nc2nccn3c(-c4c[nH]nc4C(F)(F)F)cnc23)cc1Cl [Example 165, 2-chloro-N-[2-[2-(dimethylamino)ethylamino]-2-oxoethyl]-4-[[3-[3-(trifluoromethyl)-1H-pyrazol-4-yl]imidazo[1,2-a]pyrazin-8-yl]amino]benzamide formate] | 2.52 |
| O=C(c1ccc(Nc2nccn3c(-c4cn(Cc5ncccn5)nc4C(F)(F)F)cnc23)cc1Cl)N1CCNCC1 [Example 169, [2-chloro-4-[[3-[1-(pyrimidin-2-ylmethyl)-3-(trifluoromethyl)pyrazol-4-yl]imidazo[1,2-a]pyrazin-8-yl]amino]phenyl]-piperazin-1-ylmethanone formate] | 0.392 |

Same assay, conditions: Acinetobacter baumannii, ATCC17961, 16 h, strain ATCC 17961, OD600 growth over 16 h, read-out: A. baumannii ATCC 17961 IC90

| IC90 [µM] | SMILES |
| --- | --- |
| 0.173 | CCc1cc(Nc2nccn3c(-c4cn(CCF)nc4C(F)(F)F)cnc23)ccc1C(=O)NCCOC[C@@H](C)N [Example 150, N-[2-[(2R)-2-aminopropoxy]ethyl]-2-ethyl-4-[[3-[1-(2-fluoroethyl)-3-(trifluoromethyl)pyrazol-4-yl]imidazo[1,2-a]pyrazin-8-yl]amino]benzamide] |
| 0.204 | CCc1cc(Nc2nccn3c(-c4cn(CC(F)F)nc4C(F)(F)F)cnc23)ccc1C(=O)NCCOC[C@@H](C)N [Example 151, N-[2-[(2R)-2-aminopropoxy]ethyl]-4-[[3-[1-(2,2-difluoroethyl)-3-(trifluoromethyl)pyrazol-4-yl]imidazo[1,2-a]pyrazin-8-yl]amino]-2-ethylbenzamide] |
| 0.241 | CCc1cc(Nc2nccn3c(-c4cn(CC#N)nc4C(F)(F)F)cnc23)ccc1C(=O)NCCOC[C@H](C)N [Example 152, N-[2-[(2S)-2-aminopropoxy]ethyl]-4-[[3-[1-(cyanomethyl)-3-(trifluoromethyl)pyrazol-4-yl]imidazo[1,2-a]pyrazin-8-yl]amino]-2-ethylbenzamide] |
| 0.311 | CCc1cc(Nc2nccn3c(-c4cn(CC(F)F)nc4C(F)(F)F)cnc23)ccc1C(=O)NCCOC[C@H](C)N [Example 153, N-[2-[(2S)-2-aminopropoxy]ethyl]-4-[[3-[1-(2,2-difluoroethyl)-3-(trifluoromethyl)pyrazol-4-yl]imidazo[1,2-a]pyrazin-8-yl]amino]-2-ethylbenzamide] |
| 0.391 | O=C(NC1CCN(C(=O)c2ccc(Nc3nccn4c(-c5c[nH]nc5C(F)(F)F)cnc34)cc2Cl)CC1)[C@@H]1C[C@@H](O)CN1 [Example 154, (2S,4R)-N-[1-[2-chloro-4-[[3-[3-(trifluoromethyl)-1H-pyrazol-4-yl]imidazo[1,2-a]pyrazin-8-yl]amino]benzoyl]piperidin-4-yl]-4-hydroxypyrrolidine-2-carboxamide] |
| 0.627 | CCc1cc(Nc2nccn3c(-c4cn(CC#N)nc4C(F)(F)F)cnc23)ccc1C(=O)NCCOC[C@@H](C)N [Example 156, N-[2-[(2R)-2-aminopropoxy]ethyl]-4-[[3-[1-(cyanomethyl)-3-(trifluoromethyl)pyrazol-4-yl]imidazo[1,2-a]pyrazin-8-yl]amino]-2-ethylbenzamide] |
| 0.969 | O=C(NC1CCN(C(=O)c2ccc(Nc3nccn4c(-c5c[nH]nc5C(F)(F)F)cnc34)cc2Cl)CC1)C1CCNCC1 [Example 157, N-[1-[2-chloro-4-[[3-[3-(trifluoromethyl)-1H-pyrazol-4-yl]imidazo[1,2-a]pyrazin-8-yl]amino]benzoyl]piperidin-4-yl]piperidine-4-carboxamide] |
| 4.03 | CCc1cc(Nc2nccn3c(-c4cn(CCF)nc4C(F)(F)F)cnc23)ccc1C(=O)NCCOC[C@H](C)N [Example 158, N-[2-[(2S)-2-aminopropoxy]ethyl]-2-ethyl-4-[[3-[1-(2-fluoroethyl)-3-(trifluoromethyl)pyrazol-4-yl]imidazo[1,2-a]pyrazin-8-yl]amino]benzamide] |
| 1.22 | O=C(NCC(=O)N1CCNCC1)c1ccc(Nc2nccn3c(-c4c[nH]nc4C(F)(F)F)cnc23)cc1Cl [Example 162, 2-chloro-N-(2-oxo-2-piperazin-1-ylethyl)-4-[[3-[3-(trifluoromethyl)-1H-pyrazol-4-yl]imidazo[1,2-a]pyrazin-8-yl]amino]benzamide] |
| 1.93 | N[C@H]1CCN(C(=O)CNC(=O)c2ccc(Nc3nccn4c(-c5c[nH]nc5C(F)(F)F)cnc34)cc2Cl)C1 [Example 164, N-[2-[(3S)-3-aminopyrrolidin-1-yl]-2-oxoethyl]-2-chloro-4-[[3-[3-(trifluoromethyl)-1H-pyrazol-4-yl]imidazo[1,2-a]pyrazin-8-yl]amino]benzamide] |
| 4.48 | NCCNC(=O)CNC(=O)c1ccc(Nc2nccn3c(-c4c[nH]nc4C(F)(F)F)cnc23)cc1Cl [Example 166, N-[2-(2-aminoethylamino)-2-oxoethyl]-2-chloro-4-[[3-[3-(trifluoromethyl)-1H-pyrazol-4-yl]imidazo[1,2-a]pyrazin-8-yl]amino]benzamide] |
| 0.369 | O=C(NC1CN(C(=O)c2ccc(Nc3nccn4c(-c5c[nH]nc5C(F)(F)F)cnc34)cc2Cl)C1)N[C@@H]1CCNC1 [Example 168, 1-[1-[2-chloro-4-[[3-[3-(trifluoromethyl)-1H-pyrazol-4-yl]imidazo[1,2-a]pyrazin-8-yl]amino]benzoyl]azetidin-3-yl]-3-[(3R)-pyrrolidin-3-yl]urea] |
| 0.475 | N#CCn1cc(-c2cnc3c(Nc4ccc(C(=O)N5CC(NC(=O)C6CCNCC6)C5)c(Cl)c4)nccn23)c(C(F)(F)F)n1 [Example 170, N-[1-[2-chloro-4-[[3-[1-(cyanomethyl)-3-(trifluoromethyl)pyrazol-4-yl]imidazo[1,2-a]pyrazin-8-yl]amino]benzoyl]azetidin-3-yl]piperidine-4-carboxamide] |
| 0.509 | N#CCn1cc(-c2cnc3c(Nc4ccc(C(=O)N5CC(NC(=O)N[C@@H]6CCNC6)C5)c(Cl)c4)nccn23)c(C(F)(F)F)n1 [Example 171, 1-[1-[2-chloro-4-[[3-[1-(cyanomethyl)-3-(trifluoromethyl)pyrazol-4-yl]imidazo[1,2-a]pyrazin-8-yl]amino]benzoyl]azetidin-3-yl]-3-[(3R)-pyrrolidin-3-yl]urea] |
| 0.832 | N#CCn1cc(-c2cnc3c(Nc4ccc(C(=O)N5CC(NC(=O)N[C@H]6CCNC6)C5)c(Cl)c4)nccn23)c(C(F)(F)F)n1 [Example 172, 1-[1-[2-chloro-4-[[3-[1-(cyanomethyl)-3-(trifluoromethyl)pyrazol-4-yl]imidazo[1,2-a]pyrazin-8-yl]amino]benzoyl]azetidin-3-yl]-3-[(3S)-pyrrolidin-3-yl]urea] |
| 1.11 | N#CCn1cc(-c2cnc3c(Nc4ccc(C(=O)N5CC(NC(=O)[C@@H]6C[C@@H](O)CN6)C5)c(Cl)c4)nccn23)c(C(F)(F)F)n1 [Example 173, (2S,4R)-N-[1-[2-chloro-4-[[3-[1-(cyanomethyl)-3-(trifluoromethyl)pyrazol-4-yl]imidazo[1,2-a]pyrazin-8-yl]amino]benzoyl]azetidin-3-yl]-4-hydroxypyrrolidine-2-carboxamide] |
| 0.081 | C#CCn1cc(-c2cnc3c(Nc4ccc(C(=O)NCCOCCN)c(CC)c4)nccn23)c(C(F)(F)F)n1 [Example 174, N-[2-(2-aminoethoxy)ethyl]-2-ethyl-4-[[3-[1-prop-2-ynyl-3-(trifluoromethyl)pyrazol-4-yl]imidazo[1,2-a]pyrazin-8-yl]amino]benzamide] |
| 0.357 | O=C(NC1CN(C(=O)c2ccc(Nc3nccn4c(-c5c[nH]nc5C(F)(F)F)cnc34)cc2Cl)C1)[C@@H]1C[C@@H](O)CN1 [Example 175, (2S,4R)-N-[1-[2-chloro-4-[[3-[3-(trifluoromethyl)-1H-pyrazol-4-yl]imidazo[1,2-a]pyrazin-8-yl]amino]benzoyl]azetidin-3-yl]-4-hydroxypyrrolidine-2-carboxamide] |

Same assay, conditions: strain ATCC 17961, OD600 growth over 16 h, read-out: A. baumannii ATCC 17961 IC90

| IC90 [µM] | SMILES |
| --- | --- |
| 0.485 | NC1CN(C(=O)c2ccc(Nc3nccn4c(-c5c[nH]nc5C(F)(F)F)cnc34)cc2Cl)C1 [Example 167] |
